“Also recorded” adds a separate entry of the source.
system: MCF-7/DOX cells; assay: Antagonism of multidrug resistance (sensitization to doxorubicin) in MCF-7/DOX cells, MDR Ratio; type: cell-based, human; settings: 48 h

Compound	MDR Ratio (IC50 doxorubicin alone / IC50 doxorubicin in presence of modifier)
CCN(CC)CCCN1c2ccccc2Sc2ccc(Cl)cc21 [Chlorproethazine]	2.2
CN(C)CCN1c2ccccc2Sc2ccc(Cl)cc21 [2-Chloro-10-[2-(dimethylamino)ethyl] phenothiazine]	1.5
CN(C)CCCN1c2ccccc2Sc2cc(Cl)ccc21 [3-Chlorpromazine]	1.3
CN(C)CCCN1c2cc(Cl)ccc2Sc2cc(O)c(O)cc21 [7,8-Dihydroxychlorpromazine]	0.8
CN(C)CCCN1c2ccccc2Sc2ccccc21 [Promazine]	1.2
CN(C)CCCN1c2ccccc2Sc2cccc(Cl)c21 [1-Chlorpromazine]	1.3

same assay, conditions: modifier at 10% growth inhibitory concentration

Compound	sensitization of MCF-7/DOX cells to doxorubicin [%]
CN(C)CCCN1c2ccccc2Sc2ccccc21 [Promazine]	20

system: clinically resistant cancer; assay: not given; settings: with doxorubicin or bleomycin, Phase I; cited from earlier work

Compound	dose limiting side effects in combination trials
CN1CCN(CCCN2c3ccccc3Sc3ccc(C(F)(F)F)cc32)CC1 [Trifluoperazine]	Extrapyramidal side effects have proven to be dose limiting

same assay, conditions: with doxorubicin or bleomycin, Phase I; listed as trifluperazine; cited from earlier work

Compound	dose limiting side effects in combination trials
CN1CCN(CCCN2c3ccccc3Sc3ccc(C(F)(F)F)cc32)CC1 [Trifluoperazine]	extrapyramidal side effects

system: MCF-7/DOX cells; assay: not given; settings: Fine et al; cited from earlier work

Compound	reversal of phorbol ester effects on anthracycline resistance
CN1CCN(CCCN2c3ccccc3Sc3ccc(C(F)(F)F)cc32)CC1 [Trifluoperazine]	reversed

system: acute schizophrenia; assay: not given; settings: humans; cited from earlier work

Compound	extrapyramidal side effects / toxicity of flupenthixol isomers
OCCN1CCN(CC/C=C2\c3ccccc3Sc3ccc(C(F)(F)F)cc32)CC1 [trans-Flupenthixol]	lacks these side effects; also recorded: far less toxic; also recorded: apparent lack of extrapyramidal side effects

biological target: T1, Calmodulin (Bos taurus, UniProt P62157); assay: not given; settings: Norman and Drummond; cited from earlier work

Compound	anti-CaM effect of thioxanthene stereoisomers
OCCN1CCN(CC/C=C2\c3ccccc3Sc3ccc(C(F)(F)F)cc32)CC1 [trans-Flupenthixol]	no difference between cis and trans-flupenthixol
OCCN1CCN(CC/C=C2/c3ccccc3Sc3ccc(C(F)(F)F)cc32)CC1 [cis-Flupenthixol]	no difference between cis and trans-flupenthixol

system: MCF-7/DOX cells; assay: Inhibition of MCF-7/DOX cell growth, microtiter methylene blue staining assay, 48 h; type: cell-based, human; settings: not given

Compound	inhibition of cell growth, comparison in words
CC(CN1c2ccccc2Sc2ccccc21)N(C)C (centres unmarked) [Promethazine]	less potent inhibitor of cell growth than promazine

same assay, conditions: Homo sapiens, MCF7-DOX, 48 h, MCF-7/DOX cells, 48 h, drug alone; read-out: IC50 for cell growth inhibition

Compound	IC50 [µM]
CCN(CC)CCCN1c2ccccc2Sc2ccc(Cl)cc21 [Chlorproethazine]	8 to 12
CN(C)CCN1c2ccccc2Sc2ccc(Cl)cc21 [2-Chloro-10-[2-(dimethylamino)ethyl] phenothiazine]	27
CN(C)CCCN1c2ccccc2Sc2cc(Cl)ccc21 [3-Chlorpromazine]	10
CN(C)CCCN1c2cc(Cl)ccc2Sc2cc(O)c(O)cc21 [7,8-Dihydroxychlorpromazine]	63
CN(C)CCCN1c2ccccc2Sc2ccccc21 [Promazine]	26
CN(C)CCCN1c2ccccc2Sc2cccc(Cl)c21 [1-Chlorpromazine]	21

same assay, conditions: Homo sapiens, MCF7-DOX, 48 h, MCF-7/DOX cells, 48 h, structurally related compounds; read-out: Cell Growth Inhibition IC50 (Table 5)

Compound	IC50 [µM]
CN(C)CCCN1c2ccccc2CCc2ccccc21 [Imipramine]	19

same assay, conditions: Homo sapiens, MCF7-DOX, 48 h, read-out: IC50 for cell growth inhibition

Compound	IC50 [µM]
OCCN1CCN(CC/C=C2\c3ccccc3Sc3ccc(C(F)(F)F)cc32)CC1 [trans-Flupenthixol]	25

same assay, conditions: Homo sapiens, MCF7-DOX, 48 h, read-out: concentration which alone produces 10% inhibition of cell growth

Compound	IC10 [µM]
OCCN1CCN(CC/C=C2\c3ccccc3Sc3ccc(C(F)(F)F)cc32)CC1 [trans-Flupenthixol]	6
OCCN1CCN(CC/C=C2/c3ccccc3Sc3ccc(C(F)(F)F)cc32)CC1 [cis-Flupenthixol]	3

same assay, conditions: Homo sapiens, MCF7-DOX, 48 h; read-out: Cell Growth Inhibition IC50 (Table 5)

Compound	IC50 [µM]
OCCN1CCN(CC/C=C2\c3ccccc3Sc3ccc(C(F)(F)F)cc32)CC1 [trans-Flupenthixol]	25
OCCN1CCN(CC/C=C2/c3ccccc3Sc3ccc(C(F)(F)F)cc32)CC1 [cis-Flupenthixol]	24

same assay, conditions: Homo sapiens, MCF7-DOX, 48 h; read-out: IC50 for cell growth inhibition

Compound	IC50 [µM]
OCCN1CCN(CCCN2c3ccccc3Sc3ccc(Cl)cc32)CC1 [Perphenazine]	32
CC(CN1c2ccccc2Sc2ccccc21)N(C)C (centres unmarked) [Promethazine]	29
CN1CCN(CCCN2c3ccccc3Sc3ccc(C(F)(F)F)cc32)CC1 [Trifluoperazine]	19
CN(C)CCCN1c2ccccc2Sc2ccc(C(F)(F)F)cc21 [Trifluopromazine]	16

same assay, conditions: MCF-7/DOX cells, 48 h, drug alone; read-out: IC50 for cell growth inhibition

Compound	IC50 [µM]
CCN(CC)CCCN1c2ccccc2Sc2ccc(Cl)cc21 [Chlorproethazine]	12
CN(C)CCCN1c2ccccc2Sc2ccccc21 [Promazine]	27

same assay, conditions: read-out: IC50 for cell growth inhibition

Compound	IC50 [µM]
CN(C)CCCN1c2ccccc2Sc2ccc(C(F)(F)F)cc21 [Trifluopromazine]	14

system: not given; assay: not given; settings: Norman and Drummond; cited from earlier work

Compound	octanol:buffer partition coefficient (log P)
OCCN1CCN(CC/C=C2\c3ccccc3Sc3ccc(C(F)(F)F)cc32)CC1 [trans-Flupenthixol]	4.25
O=c1[nH]c2ccccc2n1C1CCN(CCCC(c2ccc(F)cc2)c2ccc(F)cc2)CC1 [Pimozide]	4.88
OCCN1CCN(CC/C=C2/c3ccccc3Sc3ccc(C(F)(F)F)cc32)CC1 [cis-Flupenthixol]	4.25

system: P-glycoprotein; assay: not given; settings: MDR Chinese hamster lung cells, Center; cited from earlier work

Compound	phosphorylation of P-glycoprotein, doxorubicin accumulation and cytotoxicity
CN1CCN(CCCN2c3ccccc3Sc3ccc(C(F)(F)F)cc32)CC1 [Trifluoperazine]	increased phosphorylation of this protein in MDR Chinese hamster lung cells and enhanced doxorubicin accumulation and cytotoxicity

biological target: T1, Calmodulin; assay: biochemical; settings: not given

Compound	IC50 [µM]
O=c1[nH]c2ccccc2n1C1CCN(CCCC(c2ccc(F)cc2)c2ccc(F)cc2)CC1 [Pimozide]	7
CCN(CC)CCCN1c2ccccc2Sc2ccc(Cl)cc21 [Chlorproethazine]	28
CN(C)CCN1c2ccccc2Sc2ccc(Cl)cc21 [2-Chloro-10-[2-(dimethylamino)ethyl] phenothiazine]	60
CN(C)CCCN1c2ccccc2Sc2cc(Cl)ccc21 [3-Chlorpromazine]	24
CN(C)CCCN1c2cc(Cl)ccc2Sc2cc(O)c(O)cc21 [7,8-Dihydroxychlorpromazine]	82
CN(C)CCCN1c2ccccc2Sc2ccccc21 [Promazine]	110
CN(C)CCCN1c2ccccc2CCc2ccccc21 [Imipramine]	125
CN(C)CCCN1c2ccccc2Sc2cccc(Cl)c21 [1-Chlorpromazine]	74

system: MCF-7/DOX cells; assay: Cellular accumulation of cis and trans-flupenthixol in MCF-7/DOX cells; type: cell-based, human; settings: 3 μM, 3 hour incubation
Experimental: Cells were washed three times in cold PBS by centrifugation at 100× g for 10 minutes, resuspended in 2 ml of 0.3N HCl in 50% ethanol, and sonicated for 10 pulses at 200 ws with a Tekmar cell sonicator (Tekmar, Cincinnati, Ohio). Following centrifugation at 1000× g for 30 minutes, the supernatant was removed and assayed for drug content with a Perkin-Elmer 512 spectrofluorometer (Norwalk, Conn.). Optimal excitation and emission wavelengths for both thioxanthene isomers were determined to be 320 nm and 400 nm, respectively.

Compound	cell associated drug concentration at 3 μM [pmol/10^6 cells]
OCCN1CCN(CC/C=C2\c3ccccc3Sc3ccc(C(F)(F)F)cc32)CC1 [trans-Flupenthixol]	420 ± 80
OCCN1CCN(CC/C=C2/c3ccccc3Sc3ccc(C(F)(F)F)cc32)CC1 [cis-Flupenthixol]	830 ± 80

same assay, conditions: 10 μM, 3 hour incubation

Compound	cell associated drug concentration at 10 μM [pmol/10^6 cells]
OCCN1CCN(CC/C=C2\c3ccccc3Sc3ccc(C(F)(F)F)cc32)CC1 [trans-Flupenthixol]	1000 ± 250
OCCN1CCN(CC/C=C2/c3ccccc3Sc3ccc(C(F)(F)F)cc32)CC1 [cis-Flupenthixol]	1420 ± 250

same assay, conditions: 100 μM, 3 hour incubation

Compound	cell associated drug concentration at 100 μM [pmol/10^6 cells]
OCCN1CCN(CC/C=C2\c3ccccc3Sc3ccc(C(F)(F)F)cc32)CC1 [trans-Flupenthixol]	6000 ± 330
OCCN1CCN(CC/C=C2/c3ccccc3Sc3ccc(C(F)(F)F)cc32)CC1 [cis-Flupenthixol]	7000 ± 330

same assay, conditions: MDR cells

Compound	cellular accumulation of thioxanthene isomers, in words
OCCN1CCN(CC/C=C2\c3ccccc3Sc3ccc(C(F)(F)F)cc32)CC1 [trans-Flupenthixol]	equivalent, dose-dependent fashion
OCCN1CCN(CC/C=C2/c3ccccc3Sc3ccc(C(F)(F)F)cc32)CC1 [cis-Flupenthixol]	equivalent, dose-dependent fashion

From patent US5104858A, “Sensitizing multidrug resistant cells to antitumor agents” (priority 1988, dated 1992)
